According to patent US10800792B2, “Inhibitors of Bruton's tyrosine kinase and method of their use” (JANSSEN PHARMACEUTICA NV, priority 2015, dated 2020):

Biological target: unphosphorylated-BTK kinase domain (UP-BTK), GST-tagged human BTK (389-659aa) (Homo sapiens (Human), UniProt Q06187)
Test: BTK kinase Lanthascreen binding assay
Conditions: pIC50 = negative log of the IC50 in molar
In short: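 Values are pIC50, i.e. negative log of IC50 in molar, derived from concentration–response fitting. Each compound competes with a fluorescently labelled tracer for the unphosphorylated kinase domain.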

[1] = 60 minutes incubation, 50 nM Tracer 236
[2] = unphosphorylated-BTK kinase domain, 50 nM Tracer 236, 60 minutes

Sequence of unphosphorylated-BTK kinase domain (UP-BTK), GST-tagged human BTK (389-659aa) (Q06187 389-659): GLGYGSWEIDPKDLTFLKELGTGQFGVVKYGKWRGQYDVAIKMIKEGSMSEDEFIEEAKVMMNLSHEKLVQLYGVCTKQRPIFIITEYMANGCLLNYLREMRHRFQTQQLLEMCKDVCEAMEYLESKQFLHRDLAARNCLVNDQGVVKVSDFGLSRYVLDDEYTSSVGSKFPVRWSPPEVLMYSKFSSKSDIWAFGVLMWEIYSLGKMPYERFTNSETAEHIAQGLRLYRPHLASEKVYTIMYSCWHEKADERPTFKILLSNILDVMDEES

Compound | BTK_I_binding pIC50 [1] | BTK_I_binding pIC50 [2]
Cc1cc(Oc2ccccc2)ccc1N1C(=O)Nc2c(C(=O)NC[C@H]3CCCN3)sc3nccc1c23 [Example 276, (R)-5-(2-Methyl-4-phenoxyphenyl)-4-oxo-N-(pyrrolidin-2-ylmethyl)-4,5-dihydro-3H-1-thia-3,5,8-triazaacenaphthylene-2-carboxamide] | 6.3 | 
C/C=C(\Cl)C(=O)N1CCC[C@@H](NC(=O)c2sc3nccc4c3c2NC(=O)N4c2ccc(Oc3ccccc3)cc2C)C1 [Example 277, (R,Z)—N-(1-(2-Chlorobut-2-enoyl)piperidin-3-yl)-5-(2-methyl-4-phenoxyphenyl)-4-oxo-4,5-dihydro-3H-1-thia-3,5,8-triazaacenaphthylene-2-carboxamide] | 6.2 | 
C=CC(=O)N1CCC[C@@H](NC(=O)c2sc3nccc4c3c2NC(=O)N4c2ccc(Oc3ccccc3)cc2C(F)(F)F)C1 [Example 278, (R)—N-(1-Acryloylpiperidin-3-yl)-4-oxo-5-(4-phenoxy-2-(trifluoromethyl)phenyl)-4,5-dihydro-3H-1-thia-3,5,8-triazaacenaphthylene-2-carboxamide] | 6.2 | 
C=CC(=O)N1CCC[C@@H](NC(=O)c2sc3nccc4c3c2NC(=O)N4c2cccc(C)c2)C1 [Example 279, (R)—N-(1-Acryloylpiperidin-3-yl)-4-oxo-5-(m-tolyl)-4,5-dihydro-3H-1-thia-3,5,8-triazaacenaphthylene-2-carboxamide] | 6.2 | 
O=C(N[C@@H]1CCCNC1)c1sc2nccc3c2c1NC(=O)N3c1ccc(Cl)c(C(F)(F)F)c1 [Example 280, (R)-5-(4-Chloro-3-(trifluoromethyl)phenyl)-4-oxo-N-(piperidin-3-yl)-4,5-dihydro-3H-1-thia-3,5,8-triazaacenaphthylene-2-carboxamide] | 5.8 | 
Cc1c(Oc2ccccc2)ccc(N2C(=O)Nc3c(C(=O)N[C@@H]4CCCN(C)C4)sc4nccc2c34)c1C [Example 281, (R)-5-(2,3-Dimethyl-4-phenoxyphenyl)-N-(1-methylpiperidin-3-yl)-4-oxo-4,5-dihydro-3H-1-thia-3,5,8-triazaacenaphthylene-2-carboxamide] | 6.2 | 
Cc1cc(Oc2ccccc2)ccc1N1C(=O)Nc2c(C(=O)NCC3CCN(C)C3)sc3nccc1c23 (stereo not shown) [Example 282, 5-(2-Methyl-4-phenoxyphenyl)-N-((1-methylpyrrolidin-3-yl)methyl)-4-oxo-4,5-dihydro-3H-1-thia-3,5,8-triazaacenaphthylene-2-carboxamide] |  | 6.2
Cc1cc(Oc2ccccc2OC(C)C)ccc1N1C(=O)Nc2c(C(=O)N[C@@H]3CCCN(C)C3)sc3nccc1c23 [Example 283, (R)-5-(4-(2-Isopropoxyphenoxy)-2-methylphenyl)-N-(1-methylpiperidin-3-yl)-4-oxo-4,5-dihydro-3H-1-thia-3,5,8-triazaacenaphthylene-2-carboxamide] |  | 6.2
Cc1cc(OC2CCC2)ccc1N1C(=O)Nc2c(C(=O)N[C@@H]3CCCN(C)C3)sc3nccc1c23 [Example 284, (R)-5-(4-Cyclobutoxy-2-methylphenyl)-N-(1-methylpiperidin-3-yl)-4-oxo-4,5-dihydro-3H-1-thia-3,5,8-triazaacenaphthylene-2-carboxamide] |  | 6.2
Cc1cc(Oc2ccccc2)ccc1N1C(=O)Nc2c(C(=O)NC[C@H]3CCCN3C)sc3nccc1c23 [Example 285, (R)-5-(2-Methyl-4-phenoxyphenyl)-N-((1-methylpyrrolidin-2-yl)methyl)-4-oxo-4,5-dihydro-3H-1-thia-3,5,8-triazaacenaphthylene-2-carboxamide] |  | 6.2
Cc1cc(Oc2cc(F)cc(F)c2)ccc1N1C(=O)Nc2c(C(=O)N[C@@H]3CCCN(C)C3)sc3nccc1c23 [Example 286, (R)-5-(4-(3,5-Difluorophenoxy)-2-methylphenyl)-N-(1-methylpiperidin-3-yl)-4-oxo-4,5-dihydro-3H-1-thia-3,5,8-triazaacenaphthylene-2-carboxamide] |  | 6.2
C=CC(=O)N1CCC[C@@H](NC(=O)c2sc3nccc4c3c2NC(=O)N4c2cccc(C(F)(F)F)c2)C1 [Example 288, (R)—N-(1-Acryloylpiperidin-3-yl)-4-oxo-5-(3-(trifluoromethyl)phenyl)-4,5-dihydro-3H-1-thia-3,5,8-triazaacenaphthylene-2-carboxamide] |  | 6.2
Cc1ccc(Oc2ccc(N3C(=O)Nc4c(C(=O)N[C@@H]5CCCN(C)C5)sc5nccc3c45)c(C)c2)cc1 [Example 290, (R)-5-(2-Methyl-4-(p-tolyloxy)phenyl)-N-(1-methylpiperidin-3-yl)-4-oxo-4,5-dihydro-3H-1-thia-3,5,8-triazaacenaphthylene-2-carboxamide] |  | 6.2
Cc1cc(Oc2ccccc2)ccc1N1C(=O)Nc2c(C(=O)NCCN3CCOC[C@@H]3C)sc3nccc1c23 [Example 291, (S)-5-(2-Methyl-4-phenoxyphenyl)-N-(2-(3-methylmorpholino)ethyl)-4-oxo-4,5-dihydro-3H-1-thia-3,5,8-triazaacenaphthylene-2-carboxamide] |  | 6.1
Cc1cc(Oc2cccnc2)ccc1N1C(=O)Nc2c(C(=O)N[C@@H]3CCCN(C)C3)sc3nccc1c23 [Example 293, (R)-5-(2-Methyl-4-(pyridin-3-yloxy)phenyl)-N-(1-methylpiperidin-3-yl)-4-oxo-4,5-dihydro-3H-1-thia-3,5,8-triazaacenaphthylene-2-carboxamide] |  | 6.1
C=CC(=O)N1CCC[C@@H](NC(=O)c2sc3nccc4c3c2NC(=O)N4c2cccc(Cl)c2)C1 [Example 294, (R)—N-(1-Acryloylpiperidin-3-yl)-5-(3-chlorophenyl)-4-oxo-4,5-dihydro-3H-1-thia-3,5,8-triazaacenaphthylene-2-carboxamide] |  | 6.1
Cc1cc(Oc2ccc(F)cc2)ccc1N1C(=O)Nc2c(C(=O)N[C@@H]3CCCN(C)C3)sc3nccc1c23 [Example 295, (R)-5-(4-(4-Fluorophenoxy)-2-methylphenyl)-N-(1-methylpiperidin-3-yl)-4-oxo-4,5-dihydro-3H-1-thia-3,5,8-triazaacenaphthylene-2-carboxamide] |  | 6.1
Cc1cc(Oc2ccccc2)ccc1N1C(=O)Nc2c(C(=O)NCCN3CCOC[C@H]3C)sc3nccc1c23 [Example 296, (R)-5-(2-Methyl-4-phenoxyphenyl)-N-(2-(3-methylmorpholino)ethyl)-4-oxo-4,5-dihydro-3H-1-thia-3,5,8-triazaacenaphthylene-2-carboxamide] |  | 6.1
Cc1cc(OC2CCCC2)ccc1N1C(=O)Nc2c(C(=O)N[C@@H]3CCCN(C)C3)sc3nccc1c23 [Example 297, (R)-5-(4-(Cyclopentyloxy)-2-methylphenyl)-N-(1-methylpiperidin-3-yl)-4-oxo-4,5-dihydro-3H-1-thia-3,5,8-triazaacenaphthylene-2-carboxamide] |  | 6.1
